The results in this text go back to US9932328B2, “3-(6-alkoxy-5-chlorobenzo[d]isoxazol-3-yl)propanoic acid useful as kynurenine monooxygenase inhibitors” (GlaxoSmithKline Intellectual Property Development Limited, priority 2014, dated 2018).

Several values for one entry are separate records, joined by “and”; a condition that tells them apart may be missing. Identical values can stand only once.

This assay addresses T1, human KMO (Homo sapiens, UniProt O15229).
T1 construct: Full length human KMO was amplified by PCR; made in house; host or cells: Spodoptera frugiperda (Sf9) cells, baculovirus; used as purified membranes
The assay is described as follows: KMO MS Rapidfire functional assay (RapidFire high-throughput mass spectrometry, Method 1 or Method 2). Format: biochemical. To be noted: in at least one of the MS Rapidfire assays (Method 1 or 2), isolated human KMO-membranes, 10 μM Kynurenine, 200 μM NADPH, values exemplary only; for IC50: read-out: median pIC50 (converted). From the text:
KMO inhibition can be determined by MS Rapidfire assay performed on the human cloned enzyme as described herein.
L-Kynurenine (Kyn), 3-hydroxy-DL-kynurenine (3-HK), β-Nicotinamide adenine dinucleotide 2′-phosphate reduced tetrasodium salt hydrate (NADPH), 4-(2-hydroxyethyl)piperazine-1-ethanesulfonic acid (Hepes), DL-dithiothreitol (DTT), ethylenediaminetetraacetic acid (EDTA), CHAPS and trifluoroacetic acid (TFA) were purchased from Sigma-Aldrich Ltd. (Gillingham, Dorset, UK). HPLC-grade acetonitrile and formic acid were supplied by Fisher Scientific (Loughborough, UK).
Full length human KMO was amplified by PCR from pcDNA5/FRT/V5-His-TOPO/hKMO (vector supplied by the University of Edinburgh) and cloned into pGEX6P-1 (GE Healthcare) using BamH1 and Sal1 restriction sites. DNA encoding the N-terminal glutathione-S-transferase (GST) tag, followed by a Pre-Scission protease cleavage site, and the full length KMO was amplified by PCR from pGEX6P-1-KMO and cloned into pFastbac1 (Invitrogen) using Xbal and EcoR1 restriction sites.
pFastbac1 GST-KMO was transposed into the baculovirus genome using the BAC-to-BAC technology (Invitrogen) and bacmid DNA was prepared and transfected into Spodoptera frugiperda (Sf9) cells using Cellfectin II (Invitrogen).
A P1 virus stock was generated from a single clone and used to infect 3× 1.5 L cultures of Sf9 cells in 3 L Corning Fernbach flasks. […] Cells were harvested after 48 hours and disrupted by blending in 50 mM Hepes, pH 7.4, 1 mM EDTA buffer containing protease inhibitors. A low speed spin (400 g) was used to remove cell debris, followed by a high speed spin (75 000 g) to pellet the membranes. The membranes were purified in a discontinuous sucrose density gradient by re-suspending in 10% (w/v) sucrose and layering over 40% (w/v) sucrose, both in the above buffer. This was centrifuged at 150 000 g and the purified membranes were taken from the interface, collected by centrifugation at 100 000 g, resuspended in buffer and aliquoted for storage at −80° C.
11 point, 3-fold serial dilutions of test compounds were prepared in DMSO and 100 nL of these solutions were dispensed into 384-well V-base polypropylene plates (Greiner Bio-one, Stonehouse, UK) using an Echo 555 acoustic dispenser (Labcyte, Sunnyvale, Calif.). This gave a final assay concentration range between 100 μM and 1.7 nM in 10 μL final assay volume (see below). 100 nL DMSO was dispensed into columns 6 and 18 for high and low controls, respectively, with prior inactivation of the enzyme in column 18 by pre-dispense of 30 μL of 0.5% (v/v) TFA.
Conditions for the assay of human KMO using isolated KMO-membranes were 50 mM Hepes, pH 7.5, 2 mM DTT, 1 mM EDTA, 100 μM CHAPS, 200 μM NADPH, 10 μM Kynurenine and 8 μg/ml KMO-membranes in a total reaction volume of 10 μL.
Assays were performed by initially dispensing 5 μL of a 2× Enzyme solution (16 μg/ml KMO-membranes in 50 mM Hepes, pH 7.5, 2 mM DTT, 2 mM EDTA, 200 μM CHAPS) into plates containing 100 nL compounds and incubating for 10 min at ambient temperature. Reactions were initiated by addition of 5 μL of 2× Substrate solution (400 μM NADPH, 20 μM Kynurenine in 50 mM Hepes, pH 7.5, 2 mM DTT) and incubated for 2 h at room temperature before quenching the reaction with 30 μL of 0.5% (v/v) TFA. Plates were centrifuged at 2500 rpm for 10 min before analysis. All additions were made using a Multidrop Combi dispenser (Thermo Fisher Scientific).
Quenched assay plates were transferred to a high-throughput RapidFire200 integrated autosampler/solid-phase extraction (SPE) system (Agilent Technologies, Wakefield, Mass.).

T1 sequence (O15229 whole entry): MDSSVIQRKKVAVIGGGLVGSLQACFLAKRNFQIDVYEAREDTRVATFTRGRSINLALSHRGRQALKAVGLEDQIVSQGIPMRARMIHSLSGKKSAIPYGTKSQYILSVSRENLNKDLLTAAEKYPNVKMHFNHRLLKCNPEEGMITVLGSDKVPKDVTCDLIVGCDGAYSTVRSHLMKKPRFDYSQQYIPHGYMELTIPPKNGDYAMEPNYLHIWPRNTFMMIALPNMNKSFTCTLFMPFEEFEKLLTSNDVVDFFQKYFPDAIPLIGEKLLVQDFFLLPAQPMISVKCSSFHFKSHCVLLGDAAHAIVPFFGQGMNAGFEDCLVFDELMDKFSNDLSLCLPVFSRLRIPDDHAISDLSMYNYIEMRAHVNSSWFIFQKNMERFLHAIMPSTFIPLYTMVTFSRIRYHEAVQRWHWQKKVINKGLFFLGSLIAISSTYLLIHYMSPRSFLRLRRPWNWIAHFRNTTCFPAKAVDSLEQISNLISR

Consider `O=C(O)CCc1noc2cc(OCc3ccccn3)c(Cl)cc12` [Example 2, 2-amino-2-(hydroxymethyl)propane-1,3-diol 3-(5-chloro-6-(pyridin-2-ylmethoxy)benzo[d]isoxazol-3-yl)propanoate], for which the IC50 was at most 10 nM.

With `CCC(Oc1cc2onc(CCC(=O)O)c2cc1Cl)c1ccc(C)cn1` (single isomer, unassigned) [Example 23, 3-(5-chloro-6-(1-(5-methylpyridin-2-yl)propoxy)benzo[d]isoxazol-3-yl)propanoic acid], the IC50 was at most 10 nM.

Turning to `O=C(O)CCc1noc2cc(OCc3ccc(Cl)cn3)c(Cl)cc12` [Example 7, 2-amino-2-(hydroxymethyl)propane-1,3-diol 3-(5-chloro-6-((5-chloropyridin-2-yl)methoxy)benzo[d]isoxazol-3-yl)propanoate], the IC50 is 2.51 nM.

With `CCC(Oc1cc2onc(CCC(=O)O)c2cc1Cl)c1ccccn1` (single isomer, unassigned) [Example 25, 3-(5-chloro-6-(1-(pyridin-2-yl)propoxy)benzo[d]isoxazol-3-yl)propanoic acid], the IC50 is ≤ 10 nM and 3.98 nM.

Turning to `Cc1cnc(C(C)Oc2cc3onc(CCC(=O)O)c3cc2Cl)nc1` (single isomer, unassigned) [Example 39, 3-{5-Chloro-6-[1-(5-methylpyrimidin-2-yl)ethoxy]-1,2-benzoxazol-3-yl}propanoic acid], the IC50 is 10 nM.

Turning to `CCC(Oc1cc2onc(CCC(=O)O)c2cc1Cl)c1ncc(C)cn1` (single isomer, unassigned) [Example 49, 3-{5-Chloro-6-[1-(5-methylpyrimidin-2-yl)propoxy]-1,2-benzoxazol-3-yl}propanoic acid], the IC50 is 10 nM.

On to `O=C(O)CCc1noc2cc(OCc3cccnn3)c(Cl)cc12` [Example 13, 3-(5-chloro-6-(pyridazin-3-ylmethoxy)benzo[d]isoxazol-3-yl)propanoic acid], for which the IC50 was at most 10 nM.

`CCC(Oc1cc2onc(CCC(=O)O)c2cc1Cl)c1ccc(C)nn1` (single isomer, unassigned) [Example 47, 3-{5-Chloro-6-[1-(6-methylpyridazin-3-yl)propoxy]-1,2-benzoxazol-3-yl}propanoic acid]: the IC50 is 10 nM.

Regarding `Cc1ccc([C@@H](C)Oc2cc3onc(CCC(=O)O)c3cc2Cl)nn1` [Example 20, (R)-3-(5-chloro-6-(1-(6-methylpyridazin-3-yl)ethoxy)benzo[d]isoxazol-3-yl)propanoic acid], the “median pIC50” value was 8.7 and the IC50 is at most 10 nM.

For the compound `CCc1coc(C(C)Oc2cc3onc(CCC(=O)O)c3cc2Cl)n1` (single isomer, unassigned) [Example 41, 3-{5-Chloro-6-[1-(4-ethyl-1,3-oxazol-2-yl)ethoxy]-1,2-benzoxazol-3-yl}propanoic acid], the IC50 was 10 nM.

Regarding `CC(Oc1cc2onc(CCC(=O)O)c2cc1Cl)c1ncc(Cl)cn1` (single isomer, unassigned) [Example 37, 3-{5-Chloro-6-[1-(5-chloropyrimidin-2-yl)ethoxy]-1,2-benzoxazol-3-yl}propanoic acid], the IC50 was 10 nM.

On to `CCC(Oc1cc2onc(CCC(=O)O)c2cc1Cl)c1ncc(Cl)cn1` (single isomer, unassigned) [Example 51, 3-{5-Chloro-6-[1-(5-chloropyrimidin-2-yl)propoxy]-1,2-benzoxazol-3-yl}propanoic acid], for which the IC50 is 10 nM.

Consider `CCc1cccc(C(C)Oc2cc3onc(CCC(=O)O)c3cc2Cl)n1` (single isomer, unassigned) [Example 31, 3-{5-Chloro-6-[1-(6-ethylpyridin-2-yl)ethoxy]-1,2-benzoxazol-3-yl}propanoic acid], for which the IC50 was 10 nM.

`CCC(Oc1cc2onc(CCC(=O)O)c2cc1Cl)c1cccnn1` (single isomer, unassigned) [Example 46, 3-{5-Chloro-6-[1-(pyridazin-3-yl)propoxy]-1,2-benzoxazol-3-yl}propanoic acid]: the IC50 was 10 nM.

Take `CCC(Oc1cc2onc(CCC(=O)O)c2cc1Cl)c1ccc(Cl)cn1` (single isomer, unassigned) [Example 27, 3-(5-chloro-6-(1-(5-chloropyridin-2-yl)propoxy)benzo[d]isoxazol-3-yl)propanoic acid]: the IC50 was at most 10 nM.

As to `Cc1ncc(C(C)Oc2cc3onc(CCC(=O)O)c3cc2Cl)o1` (single isomer, unassigned) [Example 35, 3-{5-Chloro-6-[1-(2-methyl-1,3-oxazol-5-yl)ethoxy]-1,2-benzoxazol-3-yl}propanoic acid], the IC50 is 10 nM.

`CC[C@H](Oc1cc2onc(CCC(=O)O)c2cc1Cl)c1ncccn1` (single isomer, unassigned) [Example 43]: the IC50 was 10 nM.

In the case of `CC(Oc1cc2onc(CCC(=O)O)c2cc1Cl)c1cccnn1` (single isomer, unassigned) [Example 22, 3-(5-chloro-6-(1-(pyridazin-3-yl)ethoxy)benzo[d]isoxazol-3-yl)propanoic acid], the IC50 is at most 10 nM.

Take `CCc1ccc(C(C)Oc2cc3onc(CCC(=O)O)c3cc2Cl)nc1` (single isomer, unassigned) [Example 29, 3-{5-Chloro-6-[1-(5-ethylpyridin-2-yl)ethoxy]-1,2-benzoxazol-3-yl}propanoic acid]: the IC50 is 10 nM.
